Source: patent US6855710B2, “Substituted indolines with an inhibitory effect on various kinases and complexes of CDKs” (Boehringer Ingelheim Pharma KG, priority 1998, dated 2005)

Structure (SMILES)	melting point
CN(C)CCN(C)C(=O)CN(c1ccc(N/C(=C2\C(=O)Nc3ccccc32)c2ccccc2)cc1)S(C)(=O)=O [Example 293, (Z)-3-{1-[4-(N—((N-(2-dimethylaminoethyl)-N-methyl-amino)-carbonylmethyl)-N-methylsulphonyl-amino)-phenylamino]-1-phenyl-methylidene}-2-indolinone]	170 °C
CCN(CC)CC(=O)Nc1ccc(N/C(=C2\C(=O)Nc3ccccc32)c2ccccc2)cc1.Cl	267 to 269 °C
CN(C)CCN(c1ccc(N/C(=C2\C(=O)Nc3ccc([N+](=O)[O-])cc32)c2ccccc2)cc1)S(C)(=O)=O [Example 202, (Z)-3-{1-[4-(N-(2-dimethylamino-ethyl)-N-methylsulphonyl-amino)-phenylamino]-1-phenyl-methylidene}-5-nitro-2-indolinone]	276 to 277 °C
O=C1Nc2ccc([N+](=O)[O-])cc2/C1=C(/Nc1ccc(CN2CCCCC2)cc1)c1ccc(C(F)(F)F)cc1 [Example 442, (Z)-3-[1-(4-piperidinomethyl-phenylamino)-1-(4-trifluoromethyl-phenyl)-methylidene]-5-nitro-2-indolinone]	300 to 302 °C
CCOC(=O)CN(C)S(=O)(=O)c1ccc(N/C(=C2\C(=O)Nc3ccccc32)c2ccccc2)cc1 [Example 408, (Z)-3-{1-[4-(N-ethoxycarbonylmethyl-N-methyl-aminosulphonyl)-phenylamino]-1-phenyl-methylidene}-2-indolinone]	178 to 180 °C
CN(CC(=O)O)S(=O)(=O)c1ccc(N/C(=C2\C(=O)Nc3ccc([N+](=O)[O-])cc32)c2ccccc2)cc1 [Example 414, (Z)-3-{1-[4-(N-carboxymethyl-N-methyl-aminosulphonyl)-phenylamino]-1-phenyl-methylidene}-5-nitro-2-indolinone]	259 to 260 °C
CN(C)CCN(C)S(=O)(=O)c1ccc(N/C(=C2\C(=O)Nc3ccc([N+](=O)[O-])cc32)c2ccccc2)cc1 [Example 402, (Z)-3-{1-[4-(N-(2-dimethylaminoethyl)-N-methyl-aminosulphonyl)-phenylamino]-1-phenyl-methylidene}-5-nitro-2-indolinone]	215 to 218 °C
O=C1Nc2ccc([N+](=O)[O-])cc2/C1=C(/Nc1ccc(CNc2ncccn2)cc1)c1ccccc1 [Example 271, (Z)-3-{1-[4-(pyrimidin-2-ylaminomethyl)-phenylamino]-1-phenyl-methylidene}-5-nitro-2-indolinone]	284 to 286 °C
CNC(=O)CN(c1cccc(N/C(=C2\C(=O)Nc3ccccc32)c2ccc(CN)cc2)c1)S(C)(=O)=O [Example 418, (Z)-3-{1-[3-(N-methylaminocarbonylmethyl-N-methylsulphonyl-amino)-phenylamino]-1-(4-aminomethyl-phenyl)-methylidene}-2-indolinone]	164 °C
CCC(=O)N(CCN1CCOCC1)c1ccc(N/C(=C2\C(=O)Nc3ccccc32)c2ccccc2)cc1 [Example 349, (Z)-3-{1-[4-(N-(2-morpholinoethyl)-N-propionyl-amino)-phenylamino]-1-phenyl-methylidene}-2-indolinone]	228 °C
CN(C)CCN(C=O)c1ccc(N/C(=C2\C(=O)Nc3ccccc32)c2ccccc2)cc1 [Example 339, (Z)-3-{1-[4-(N-(2-dimethylaminoethyl)-N-formyl-amino)-phenylamino]-1-phenyl-methylidene}-2-indolinone]	246 to 248 °C
CN(C)C(=O)CN(C(=O)c1ccccc1)c1ccc(N/C(=C2\C(=O)Nc3ccccc32)c2ccccc2)cc1 [Example 363, (Z)-3-{1-[4-(N-dimethylaminocarbonylmethyl-N-benzoyl-amino)-phenylamino]-1-phenyl-methylidene}-2-indolinone]	284 to 287 °C
O=C1Nc2ccc([N+](=O)[O-])cc2/C1=C(/Nc1ccc(CCN2CC=CCC2)cc1)c1ccccc1 [Example 269, (Z)-3-{1-[4-(2-(3,6-Dihydro-2H-pyridin-1-yl)-ethyl)-phenylamino]-1-phenyl-methylidene}-5-nitro-2-indolinone]	249 to 254 °C (dec.)
CCOC(=O)c1cccc(N/C(=C2\C(=O)Nc3ccccc32)c2ccccc2)c1 [Example 14, (Z)-3-[1-(3-ethoxycarbonyl-phenylamino)-1-phenyl-methylidene]-2-indolinone]	194 to 195 °C
CN(C)CCCOc1ccc(N/C(=C2\C(=O)Nc3ccccc32)c2ccccc2)cc1 [Example 286, (Z)-3-{1-[4-(3-dimethylaminopropyloxy)-phenylamino]-1-phenyl-methylidene}-2-indolinone]	215 to 217 °C
O=C1Nc2ccc(Br)cc2/C1=C(/Nc1ccc(CN2CCCCC2)cc1)c1ccccc1 [Example 450, (Z)-3-[1-(4-piperidinomethyl-phenylamino)-1-phenyl-methylidene]-5-bromo-2-indolinone]	170 °C
CC(=O)N(C)Cc1ccc(N/C(=C2\C(=O)Nc3ccc([N+](=O)[O-])cc32)c2ccccc2)cc1 [Example 122, (Z)-3-{1-[4-(N-acetyl-N-methyl-aminomethyl)-phenylamino]-1-phenyl-methylidene}-5-nitro-2-indolinone]	307 °C
CC(C)(C)OC(=O)NCC(=O)Nc1ccc(N/C(=C2\C(=O)Nc3ccccc32)c2ccccc2)cc1 [Example 34, (Z)-3-[1-(4-tert.butoxycarbonylaminomethylcarbonylamino-phenylamino)-1-phenyl-methylidene]-2-indolinone]	243 to 244 °C (dec.)
O=C1Nc2ccc([N+](=O)[O-])cc2/C1=C(/Nc1ccc(CNC2CC2)cc1)c1ccccc1 [Example 274, (Z)-3-{1-[4-(cyclopropylaminomethyl)-phenylamino]-1-phenyl-methylidene}-5-nitro-2-indolinone]	220 to 221 °C (dec.)
CN(C)Cc1cccc(N/C(=C2\C(=O)Nc3ccc([N+](=O)[O-])cc32)c2ccccc2)c1 [Example 107, (Z)-3-[1-(3-dimethylaminomethyl-phenylamino)-1-phenyl-methylidene]-5-nitro-2-indolinone]	214 to 217 °C
CC1CCN(Cc2ccc(N/C(=C3\C(=O)Nc4ccc([N+](=O)[O-])cc43)c3ccccc3)cc2)CC1 [Example 169, (Z)-3-{1-[4-(4-methylpiperidinomethyl)-phenylamino]-1-phenyl-methylidene}-5-nitro-2-indolinone]	161 °C
CC(=O)NCc1ccc(/C(Nc2ccc(N(CCN(C)C)S(C)(=O)=O)cc2)=C2/C(=O)Nc3ccccc32)cc1 [Example 427, (Z)-3-{1-[4-(N-(2-dimethylaminoethyl)-N-methylsulphonyl-amino)-phenylamino]-1-(4-acetylaminomethyl-phenyl)-methylidene}-2-indolinone]	225 to 227 °C
CC(C)(C)OC(=O)NC(Cc1ccc(N/C(=C2\C(=O)Nc3ccc([N+](=O)[O-])cc32)c2ccccc2)cc1)C(=O)O (centres unmarked) [Example 226, (Z)-3-{1-[4-(2-tert.butoxycarbonylamino-2-carboxy-ethyl)-phenylamino]-1-phenyl-methylidene}-5-nitro-2-indolinone]	235 °C (dec.)
